{"source": "patent US12102648B2", "about": "“Orally-bioavailable nucleoside analogs” (priority 2021, dated 2024)", "experiment": "in vitro", "type": "in vitro ADME", "conditions": "human", "how_it_was_run": "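Caco-2 monolayers cultured 19 days on inserts (TEER >600 […]); bidirectional A-to-B and B-to-A transport at 37° C over 90 min, samples quantified by LC/MS/MS. Papp, efflux ratio and recovery calculated; ER >2 flags potential efflux substrates.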", "key": {"[1]": {"conditions": "Caco-2 monolayer, apical to basolateral, 90-minute incubation, read-out: Papp, A-B"}, "[2]": {"conditions": "Caco-2 monolayer, basolateral to apical, 90-minute incubation, read-out: Papp, B-A"}, "[3]": {"conditions": "Caco-2 monolayer, ER>2 indicates potential efflux transporter substrate, read-out: ER (efflux ratio)"}}, "note": "Like-named read-outs stand apart in the source and are kept apart here."}
{"smiles": "CCCCC(=O)Nc1ncnn2c([C@]3(C#N)O[C@H](CO)[C@@H](OC(=O)Cc4ccccc4)[C@H]3O)ccc12", "note": "[Compound 340, (2R,3S,4R,5R)-5-cyano-4-hydroxy-2-(hydroxymethyl)-5-(4-pentanamidopyrrolo[2,1-f][1,2,4]triazin-7-yl)tetrahydrofuran-3-yl 2-phenylacetate]", "values": [{"measurement": "Papp A→B at 90 min", "setting": "[1]", "value": 0.64, "unit": "×10⁻⁶ cm/s"}, {"measurement": "Papp B→A at 90 min", "setting": "[2]", "value": 0.23, "unit": "×10⁻⁶ cm/s"}, {"measurement": "efflux ratio at 90 min", "setting": "[3]", "value": 0.35}]}
{"smiles": "CCCCC(=O)Nc1ncnn2c([C@]3(C#N)O[C@H](COC(=O)[C@@H](N)C(C)C)[C@@H](O)[C@H]3O)ccc12", "note": "[Compound 341, ((2R,3S,4R,5R)-5-cyano-3,4-dihydroxy-5-(4-pentanamidopyrrolo[2,1-f][1,2,4]triazin-7-yl)tetrahydrofuran-2-yl)methyl L-valinate]", "values": [{"measurement": "Papp A→B at 90 min", "setting": "Caco-2", "value": 0.13, "unit": "×10⁻⁶ cm/s"}, {"measurement": "Papp B→A at 90 min", "setting": "Caco-2", "value": 2.3, "unit": "×10⁻⁶ cm/s"}, {"measurement": "efflux ratio at 90 min", "setting": "Caco-2", "value": 18}]}
{"smiles": "N#C[C@@]1(c2ccc3c(NC(=O)c4ccccc4)ncnn23)O[C@H](CO)[C@@H](OC(=O)CC2CCCCC2)[C@H]1O", "note": "[Compound 342, (2R,3S,4R,5R)-5-(4-benzamidopyrrolo[2,1-f][1,2,4]triazin-7-yl)-5-cyano-4-hydroxy-2-(hydroxymethyl)tetrahydrofuran-3-yl 2-cyclohexylacetate]", "values": [{"measurement": "Papp A→B at 90 min", "setting": "Caco-2", "value": 1.1, "unit": "×10⁻⁶ cm/s"}, {"measurement": "Papp B→A at 90 min", "setting": "Caco-2", "value": 0.39, "unit": "×10⁻⁶ cm/s"}, {"measurement": "efflux ratio at 90 min", "setting": "Caco-2", "value": 0.34}]}
{"smiles": "CC(=O)O[C@@H]1[C@H](OC(=O)[C@@H](N)C(C)C)[C@@H](COC(=O)Cc2ccccc2)O[C@@]1(C#N)c1ccc2c(N)ncnn12", "note": "[Compound 343, (2R,3R,4R,5R)-4-acetoxy-5-(4-aminopyrrolo[2,1-f][1,2,4]triazin-7-yl)-5-cyano-2-((2-phenylacetoxy)methyl)tetrahydrofuran-3-yl L-valinate]", "values": [{"measurement": "Papp A→B at 90 min", "setting": "[1]", "value": 1.2, "unit": "×10⁻⁶ cm/s"}, {"measurement": "Papp B→A at 90 min", "setting": "[2]", "value": 6.5, "unit": "×10⁻⁶ cm/s"}, {"measurement": "efflux ratio at 90 min", "setting": "[3]", "value": 5.6}]}
{"smiles": "CC(=O)Nc1ncnn2c([C@]3(C#N)O[C@H](COC(=O)Cc4ccccc4)[C@@H](OC(=O)[C@@H](N)C(C)C)[C@H]3O)ccc12", "note": "[Compound 344, (2R,3S,4R,5R)-5-(4-acetamidopyrrolo[2,1-f][1,2,4]triazin-7-yl)-5-cyano-4-hydroxy-2-((2-phenylacetoxy)methyl)tetrahydrofuran-3-yl L-valinate]", "values": [{"measurement": "Papp A→B at 90 min", "setting": "[1]", "value": 0.8, "unit": "×10⁻⁶ cm/s"}, {"measurement": "Papp B→A at 90 min", "setting": "[2]", "value": 9.7, "unit": "×10⁻⁶ cm/s"}, {"measurement": "efflux ratio at 90 min", "setting": "[3]", "value": 12}]}
{"smiles": "N#C[C@@]1(c2ccc3c(NC(=O)[C@@H](N)Cc4ccc(F)cc4)ncnn23)O[C@H](CO)[C@@H](OC(=O)CC2(N)CCCCC2)[C@H]1O", "note": "[Compound 345, (2R,3S,4R,5R)-5-(4-((S)-2-amino-3-(4-fluorophenyl)propanamido)pyrrolo[2,1-f][1,2,4]triazin-7-yl)-5-cyano-4-hydroxy-2-(hydroxymethyl)tetrahydrofuran-3-yl 2-(1-aminocyclohexyl)acetate]", "values": [{"measurement": "Papp A→B at 90 min", "setting": "Caco-2", "value": 0.09, "unit": "×10⁻⁶ cm/s"}, {"measurement": "Papp B→A at 90 min", "setting": "Caco-2", "value": 3.9, "unit": "×10⁻⁶ cm/s"}, {"measurement": "efflux ratio at 90 min", "setting": "Caco-2", "value": 43}]}
{"smiles": "CCCC(=O)Nc1ncnn2c([C@]3(C#N)O[C@H](COC(=O)Cc4ccccc4)[C@@H](OC(=O)[C@@H](N)C(C)C)[C@H]3O)ccc12", "note": "[Compound 346, (2R,3S,4R,5R)-5-(4-butyramidopyrrolo[2,1-f][1,2,4]triazin-7-yl)-5-cyano-4-hydroxy-2-((2-phenylacetoxy)methyl)tetrahydrofuran-3-yl L-valinate]", "values": [{"measurement": "Papp A→B at 90 min", "setting": "[1]", "value": 1.6, "unit": "×10⁻⁶ cm/s"}, {"measurement": "Papp B→A at 90 min", "setting": "[2]", "value": 9, "unit": "×10⁻⁶ cm/s"}, {"measurement": "efflux ratio at 90 min", "setting": "[3]", "value": 5.7}]}
{"smiles": "CC(C)C(=O)Nc1ncnn2c([C@]3(C#N)O[C@H](COC(=O)Cc4ccccc4)[C@@H](OC(=O)[C@@H](N)C(C)C)[C@H]3O)ccc12", "note": "[Compound 347, (2R,3S,4R,5R)-5-cyano-4-hydroxy-5-(4-isobutyramidopyrrolo[2,1-f][1,2,4]triazin-7-yl)-2-((2-phenylacetoxy)methyl)tetrahydrofuran-3-yl L-valinate]", "values": [{"measurement": "Papp A→B at 90 min", "setting": "[1]", "value": 7, "unit": "×10⁻⁶ cm/s"}, {"measurement": "Papp B→A at 90 min", "setting": "[2]", "value": 17, "unit": "×10⁻⁶ cm/s"}, {"measurement": "efflux ratio at 90 min", "setting": "[3]", "value": 2.4}]}
